Assay results as given in patent publication US5691135A, “Immunoglobulin superantigen binding to gp 120 from HIV” (The Regents of the University of California, priority 1994, dated 1997).
Values joined by “and” are separate entries in the source; they are usually repeats but may differ in a detail not shown here. Equal values may be shown once. “Also recorded” adds a separate entry of the source.

Assays:
[1] = system: monoclonal IgM HEA binding to gp120; parameters: species or system human; settings: for RESIDUAL BINDING TO gp120 (% OF CONTROL), 1.0 μM PEPTIDE / RESIDUAL BINDING TO gp120 (% OF CONTROL), 10.0 μM PEPTIDE: gp120 elisa
[2] = system: monoclonal IgM VNG binding to gp120; parameters: species or system human; settings: for RESIDUAL BINDING TO gp120 (% OF CONTROL), 1.0 μM PEPTIDE / RESIDUAL BINDING TO gp120 (% OF CONTROL), 10.0 μM PEPTIDE: gp120 elisa
[3] = system: polyclonal serum IgM binding to gp120 from HIV-1SF2; parameters: species or system human; settings: for RESIDUAL BINDING TO gp120 (% OF CONTROL), 1.0 μM PEPTIDE / RESIDUAL BINDING TO gp120 (% OF CONTROL), 10.0 μM PEPTIDE: gp120 elisa
[4] = system: VH3 IgM binding to gp120
[5] = system: monoclonal IgM RSJ binding to gp120; parameters: species or system human; settings: gp120 elisa
[6] = system: monoclonal IgM VIN binding to gp120; parameters: species or system human; settings: gp120 elisa
[7] = system: panel of Ig-SAg binding antibodies (polyclonal IgM plus four monoclonal IgM) binding to gp120; parameters: species or system human
[8] = system: tonsil T-cells (CD19-, CD3+); format: cell-based, human
[9] = system: CD19+ tonsil B-cells; format: cell-based, human

Row | Substance | RESIDUAL BINDING TO gp120 (% OF CONTROL), 1.0 μM PEPTIDE [2] [% OF CONTROL] | RESIDUAL BINDING TO gp120 (% OF CONTROL), 10.0 μM PEPTIDE [2] [% OF CONTROL] | RESIDUAL BINDING TO gp120 (% OF CONTROL), 1.0 μM PEPTIDE [5] [% OF CONTROL] | RESIDUAL BINDING TO gp120 (% OF CONTROL), 1.0 μM PEPTIDE [6] [% OF CONTROL] | RESIDUAL BINDING TO gp120 (% OF CONTROL), 10.0 μM PEPTIDE [6] [% OF CONTROL] | RESIDUAL BINDING TO gp120 (% OF CONTROL), 1.0 μM PEPTIDE [1] [% OF CONTROL] | RESIDUAL BINDING TO gp120 (% OF CONTROL), 10.0 μM PEPTIDE [1] [% OF CONTROL] | RESIDUAL BINDING TO gp120 (% OF CONTROL), 1.0 μM PEPTIDE [3] [% OF CONTROL] | RESIDUAL BINDING TO gp120 (% OF CONTROL), 10.0 μM PEPTIDE [3] [% OF CONTROL] | RESIDUAL BINDING TO gp120 (% OF CONTROL), 10.0 μM PEPTIDE [5] [% OF CONTROL] | also measured
1 | CRIKQIIMWQKVGKAMYAPPISG [Peptide 1589, gp160 peptide 418-441, HIV-1 IIIB] |  |  |  |  |  |  |  |  |  |  | inhibition of HEA binding to gp120 [1]: inhibited the binding of HEA to gp120
2 | CTRPNYNKRKRIHIGPGRAF [Peptide 1985, gp160 peptide 301-320, HIV-1 MN] | 27.4 ± 0.5 | 24.2 ± 0.1 |  |  |  |  |  |  |  |  | binding of VNG to peptide [2]: bound; inhibition of polyclonal serum IgM binding to gp120 [3]: does not inhibit
3 | DTEVHNVWATQACVPTDPNP [Peptide 1925, gp160 peptide 61-81, HIV-1 MN] |  |  |  |  |  |  |  |  |  |  | inhibition of gp120 binding to VH3 IgM [4]: neither actin nor the 1925 peptide inhibited
4 | EGTIKGGEMKNCSFNITTSI [Peptide 1934, gp160 peptide 151-170, HIV-1 MN] |  |  | 13.9 ± 0.3 |  |  |  |  |  |  |  | 
5 | GKAMYAPPIEGQIRCSSNIT [Peptide 2008, gp160 peptide 431-450, HIV-1 MN] |  |  |  | 108 ± 4.3 | 15.7 ± 1.7 |  |  |  |  |  | 
6 | KGSCKNVSTVQCTHGIRPVV [Peptide 1960, gp160 peptide 241-260, HIV-1 MN] | 58.1 ± 0 | 32.3 ± 7.1 | 10.2 ± 2.4 | 6.2 ± 1.3 | 5.8 ± 1.3 | 11.3 ± 2.5 | 6.2 ± 3.0 | 19.2 ± 1.0 | 11.7 ± 2.3 | 4.2 ± 5.0 | peptide binding across all Ig tested [7]: bound to all Ig tested
7 | KQIINMWQEVGKAMYAPPIE [Peptide 2007, gp160 peptide 421-440, HIV-1 MN] |  |  | 24.1 ± 0.1 | 69.8 ± 4.2 | 21.2 ± 1.2 | 56.2 ± 4.7 | 10.3 ± 0.5 | 59.1 ± 0.8 | 19.8 ± 5.4 | 3.1 ± 0.7 | 
8 | KWNDTLRQIVSKLKEQFKNK [Peptide 1989, gp160 peptide 341-360, HIV-1 MN] |  |  |  | 96.6 ± 6.1 | 13.4 ± 1.8 | 98.3 ± 0.1 | 26.2 ± 0.8 | 88.5 ± 3.6 | 24.6 ± 6.6 |  | 
9 | LKCNDKKFSGKGSCKNVSTV [Peptide 1959, gp160 peptide 231-250, HIV-1 MN] | 48.7 ± 0.9 | 13.7 ± 3.6 | 40.5 ± 8.2 | 12.6 ± 1.0 | 8.0 ± 0.2 | 28.3 ± 3.7 | 8.4 ± 5.3 | 37.0 ± 4.4 | 16.8 ± 8.4 | 17.2 ± 1.7 | peptide binding across all Ig tested [7]: bound to all Ig tested
10 | MRVKGIRRNYQHWWGWGTM [Peptide 1919, gp160 peptide, amino acids 1-20, HIV-1 MN] | 46.4 ± 20.2 | 3.3 ± 1.7 | 11.1 ± 1.5 | 28.1 ± 5.0 | 14.8 ± 2.0 | 56.1 ± 3.6 | 15.1 ± 2.1 | 17.6 ± 0.2 |  | 1.3 ± 0.1 | inhibition of gp120 binding to VH3 IgM [4]: inhibited gp120 binding to VH3 IgM; inhibition of IgM binding to gp120 by shared peptides [7]: abolished the binding of IgM to gp120; peptide binding across all Ig tested [7]: bound to all Ig tested; also recorded: bound to all of the monoclonal antibodies as well as to polyclonal serum IgM
11 | RQAHCNISRAKWNDTLRQIV [Peptide 1988, gp160 peptide 331-350, HIV-1 MN] |  |  | 20.3 ± 1.5 | 12.4 ± 0.6 | 12.2 ± 7.8 | 92.8 ± 0.4 | 40.8 ± 6.1 | 39.9 ± 3.6 | 23.7 ± 9.7 | 13.5 ± 0.4 | 
12 | TKAKRRVVQREKRAAIGALP [Peptide 2015, gp160 peptide 501-520, HIV-1 MN] | 83.0 ± 6.3 | 37.7 ± 2.0 |  | 23.7 ± 3.4 | 6.5 ± 2.0 |  |  | 44.5 ± 5.4 | 29.3 ± 5.1 |  | 
13 | YTTKNIIGTIRQAHCNISRA [Peptide 1987, gp160 peptide 321-340, HIV-1 MN] |  |  | 56.8 ± 0.3 |  |  |  |  |  |  | 42.2 ± 3.4 | 
14 | actin |  |  |  |  |  |  |  |  |  |  | inhibition of gp120 binding to VH3 IgM [4]: neither actin nor the 1925 peptide inhibited
15 | gp120: recombinant gp120 from HIV-1SF2 expressed in CHO cells |  |  |  |  |  |  |  |  |  |  | fraction of T-cell population (CD19-) that bound gp120 [8]: 68% and 65%; fraction of B-cell population (CD19+) that bound gp120 [9]: 4% and 3-6%
16 | thyroglobulin |  |  |  |  |  |  |  |  |  |  | inhibition of gp120 binding to VH3 IgM [4]: inhibited gp120 binding to VH3 IgM
